Ten compounds from ChEMBL document CHEMBL5370603, “N-(2-Aminophenyl)-benzamide Inhibitors of Class I HDAC Enzymes with Antiproliferative and Antifibrotic Activity” (J Med Chem, 2023) can be followed below.

Molecules are shown by their SMILES.

Chain of Histone deacetylase 1 (Q13547 whole entry): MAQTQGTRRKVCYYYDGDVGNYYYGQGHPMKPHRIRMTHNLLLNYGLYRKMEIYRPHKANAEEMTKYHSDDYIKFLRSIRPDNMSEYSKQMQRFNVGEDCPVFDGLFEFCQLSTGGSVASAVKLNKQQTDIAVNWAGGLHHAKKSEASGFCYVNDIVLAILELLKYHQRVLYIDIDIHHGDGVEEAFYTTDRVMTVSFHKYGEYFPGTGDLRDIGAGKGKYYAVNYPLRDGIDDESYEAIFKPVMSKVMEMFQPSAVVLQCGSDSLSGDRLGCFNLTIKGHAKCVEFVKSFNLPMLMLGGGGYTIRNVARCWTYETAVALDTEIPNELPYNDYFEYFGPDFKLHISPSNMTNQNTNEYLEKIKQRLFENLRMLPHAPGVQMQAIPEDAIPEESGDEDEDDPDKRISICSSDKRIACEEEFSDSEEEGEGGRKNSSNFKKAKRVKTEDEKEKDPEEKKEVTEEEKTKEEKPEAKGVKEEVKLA

One assay concerns the target Histone deacetylase 1 (Homo sapiens, UniProt Q13547). Nature of the assay: Inhibition of human recombinant HDAC1 using Ac-Leu-Gly-Lys(Ac)-AMC as substrate preincubated with enzyme for 30 mins followed by substrate addition and measured after 90 mins by fluorescence based analysis.
Details: not given
Take `O=C(NO)c1ccc(COc2ccc(CNC(=O)[C@@H]3CCC(=O)N3Cc3ccccc3)cc2)cc1`: the IC50 came out at 1.98 µM.
Same read-out and setting: for `O=C(NCc1ccc(OCc2ccc(B(O)O)cc2)cc1)[C@@H]1CCC(=O)N1Cc1ccccc1` the value was greater than 10 µM; for `Nc1ccccc1NC(=O)c1ccc(COc2ccc(CNC(=O)[C@@H]3CCC(=O)N3Cc3ccc(F)cc3)cc2)cc1`, 0.216 µM.
Still for that read-out and setting: the same measure for `O=C(O)c1ccc(COc2ccc(CNC(=O)[C@@H]3CCC(=O)N3Cc3ccccc3)cc2)cc1`: greater than 10 µM.
As to `Nc1ccccc1NC(=O)c1ccc(COc2ccc(CNC(=O)[C@@H]3CCC(=O)N3Cc3ccc(Br)cc3)cc2)cc1`, the IC50 was found to be 0.051 µM.
Same read-out and setting: the same measure for `Nc1ccccc1NC(=O)c1ccc(COc2ccc(CNC(=O)[C@@H]3CCCN3C(=O)OCc3ccccc3)cc2)cc1`: 0.202 µM; for `CC(C)(C)OC(=O)NCc1ccc(OCc2ccc(C(=O)Nc3ccccc3N)cc2)cc1`: 1.71 µM; for `O=C(O)c1ccc(COc2ccc(CNC(=O)[C@@H]3CCC(=O)N3Cc3ccc(Br)cc3)cc2)cc1`: greater than 10 µM.
Still for that read-out and setting: the same measure for `O=C(Nc1ccccc1)c1ccc(COc2ccc(CNC(=O)[C@@H]3CCC(=O)N3Cc3ccccc3)cc2)cc1`: greater than 10 µM; for `O=C(NCc1ccccc1)c1ccc(COc2ccc(CNC(=O)[C@@H]3CCC(=O)N3Cc3ccccc3)cc2)cc1`: greater than 10 µM.

For the next assay, the target named is Histone deacetylase 2 (Homo sapiens, UniProt Q92769). Nature of the assay: Inhibition of human recombinant HDAC2 using Ac-Leu-Gly-Lys(Ac)-AMC as substrate preincubated with enzyme for 30 mins followed by substrate addition and measured after 90 mins by fluorescence based analysis.
Chain of Histone deacetylase 2 (Q92769 whole entry): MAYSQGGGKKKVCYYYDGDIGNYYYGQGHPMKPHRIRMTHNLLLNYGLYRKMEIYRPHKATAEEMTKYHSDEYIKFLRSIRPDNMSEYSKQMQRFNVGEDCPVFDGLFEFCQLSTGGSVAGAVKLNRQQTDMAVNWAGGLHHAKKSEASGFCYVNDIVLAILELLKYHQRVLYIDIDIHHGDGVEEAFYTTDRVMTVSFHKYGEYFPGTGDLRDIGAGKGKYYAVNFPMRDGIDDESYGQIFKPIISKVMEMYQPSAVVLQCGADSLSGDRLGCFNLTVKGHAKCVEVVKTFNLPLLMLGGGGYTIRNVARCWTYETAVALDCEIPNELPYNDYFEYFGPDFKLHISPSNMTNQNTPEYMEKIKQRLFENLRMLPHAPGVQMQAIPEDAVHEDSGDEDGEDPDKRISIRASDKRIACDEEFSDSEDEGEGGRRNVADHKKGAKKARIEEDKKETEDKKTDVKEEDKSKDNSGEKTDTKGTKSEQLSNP
Details: not given
As for `Nc1ccccc1NC(=O)c1ccc(COc2ccc(CNC(=O)[C@@H]3CCC(=O)N3Cc3ccc(F)cc3)cc2)cc1`, the IC50 came out at 0.348 µM.
Same read-out and setting: for `Nc1ccccc1NC(=O)c1ccc(COc2ccc(CNC(=O)[C@@H]3CCC(=O)N3Cc3ccc(Br)cc3)cc2)cc1` the value was 0.082 µM.

For a further assay, the target named is T1, Protein deacetylase HDAC6 (Homo sapiens, UniProt Q9UBN7).
T1 sequence (Q9UBN7 whole entry): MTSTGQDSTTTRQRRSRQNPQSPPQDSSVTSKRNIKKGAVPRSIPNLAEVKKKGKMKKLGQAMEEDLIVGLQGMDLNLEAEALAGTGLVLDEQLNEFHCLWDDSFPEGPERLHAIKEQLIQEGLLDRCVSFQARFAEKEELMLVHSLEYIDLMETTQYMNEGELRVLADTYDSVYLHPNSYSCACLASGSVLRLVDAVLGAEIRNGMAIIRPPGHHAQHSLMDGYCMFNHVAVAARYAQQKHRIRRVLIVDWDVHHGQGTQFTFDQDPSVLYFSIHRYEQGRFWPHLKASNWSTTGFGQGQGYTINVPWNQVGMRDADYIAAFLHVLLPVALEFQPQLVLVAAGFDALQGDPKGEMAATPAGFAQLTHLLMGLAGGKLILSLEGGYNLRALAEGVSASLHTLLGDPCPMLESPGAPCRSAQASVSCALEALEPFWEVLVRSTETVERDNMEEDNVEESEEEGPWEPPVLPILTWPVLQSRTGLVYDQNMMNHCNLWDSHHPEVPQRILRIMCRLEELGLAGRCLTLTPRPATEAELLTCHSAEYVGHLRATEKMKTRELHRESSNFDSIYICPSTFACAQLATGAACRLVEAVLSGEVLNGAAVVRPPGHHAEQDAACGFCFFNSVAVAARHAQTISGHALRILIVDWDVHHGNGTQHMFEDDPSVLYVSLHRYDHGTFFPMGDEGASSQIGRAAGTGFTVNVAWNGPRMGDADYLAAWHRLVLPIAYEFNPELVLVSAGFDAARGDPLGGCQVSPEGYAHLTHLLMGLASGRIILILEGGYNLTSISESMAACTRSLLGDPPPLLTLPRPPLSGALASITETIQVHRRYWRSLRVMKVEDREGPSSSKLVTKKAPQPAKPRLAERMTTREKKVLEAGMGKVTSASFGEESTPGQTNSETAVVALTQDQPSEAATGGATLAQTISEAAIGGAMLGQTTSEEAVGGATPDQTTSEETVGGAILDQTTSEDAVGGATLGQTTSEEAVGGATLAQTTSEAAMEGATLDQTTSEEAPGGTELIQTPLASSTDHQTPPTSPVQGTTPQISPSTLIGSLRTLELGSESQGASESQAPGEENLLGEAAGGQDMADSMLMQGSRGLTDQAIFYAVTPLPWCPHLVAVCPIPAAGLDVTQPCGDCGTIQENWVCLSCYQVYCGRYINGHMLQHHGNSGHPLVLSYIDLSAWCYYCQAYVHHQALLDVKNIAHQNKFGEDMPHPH
Kind of assay: Inhibition of C-terminal FLAG-tagged human recombinant full length HDAC6 expressed in baculovirus expression system using Boc-Lys(Ac)-AMC as substrate preincubated with enzyme for 15 mins followed by substrate addition and measured after 60 mins by fluorescence based analysis.
Details: not given
For `O=C(NO)c1ccc(COc2ccc(CNC(=O)[C@@H]3CCC(=O)N3Cc3ccccc3)cc2)cc1`, the IC50 came to 0.143 µM.
Still for that read-out and setting: for `O=C(NCc1ccc(OCc2ccc(B(O)O)cc2)cc1)[C@@H]1CCC(=O)N1Cc1ccccc1` the value was greater than 10 µM; for `Nc1ccccc1NC(=O)c1ccc(COc2ccc(CNC(=O)[C@@H]3CCC(=O)N3Cc3ccc(F)cc3)cc2)cc1`, greater than 100 µM; for `O=C(O)c1ccc(COc2ccc(CNC(=O)[C@@H]3CCC(=O)N3Cc3ccccc3)cc2)cc1`, greater than 10 µM.
Still for that read-out and setting: the same measure for `Nc1ccccc1NC(=O)c1ccc(COc2ccc(CNC(=O)[C@@H]3CCC(=O)N3Cc3ccc(Br)cc3)cc2)cc1`: greater than 100 µM; for `Nc1ccccc1NC(=O)c1ccc(COc2ccc(CNC(=O)[C@@H]3CCCN3C(=O)OCc3ccccc3)cc2)cc1`: greater than 10 µM; for `CC(C)(C)OC(=O)NCc1ccc(OCc2ccc(C(=O)Nc3ccccc3N)cc2)cc1`: greater than 10 µM.
On the same count and under the same terms, the same measure for `O=C(O)c1ccc(COc2ccc(CNC(=O)[C@@H]3CCC(=O)N3Cc3ccc(Br)cc3)cc2)cc1`: greater than 10 µM.
With `O=C(Nc1ccccc1)c1ccc(COc2ccc(CNC(=O)[C@@H]3CCC(=O)N3Cc3ccccc3)cc2)cc1`, the IC50 was greater than 10 µM.
Same read-out and setting: the same measure for `O=C(NCc1ccccc1)c1ccc(COc2ccc(CNC(=O)[C@@H]3CCC(=O)N3Cc3ccccc3)cc2)cc1`: greater than 10 µM.

The subject of another assay is A549. Kind of assay: Antiproliferative activity against human A549 cells assessed as inhibition of cell growth incubated for 72 hrs by MTT assay. Conditions: A549, 72 h. In kind it is functional, cell-based.
In the case of `O=C(NO)c1ccc(COc2ccc(CNC(=O)[C@@H]3CCC(=O)N3Cc3ccccc3)cc2)cc1`, the IC50 is greater than 25 µM.
Still for that read-out and setting: for `O=C(NCc1ccc(OCc2ccc(B(O)O)cc2)cc1)[C@@H]1CCC(=O)N1Cc1ccccc1` the value was greater than 25 µM.
Take `Nc1ccccc1NC(=O)c1ccc(COc2ccc(CNC(=O)[C@@H]3CCC(=O)N3Cc3ccc(F)cc3)cc2)cc1`: the half-maximal inhibitory concentration (IC50) amounted to 6.9 µM.
On to `O=C(O)c1ccc(COc2ccc(CNC(=O)[C@@H]3CCC(=O)N3Cc3ccccc3)cc2)cc1`, for which the IC50 was greater than 25 µM.
Still for that read-out and setting: for `Nc1ccccc1NC(=O)c1ccc(COc2ccc(CNC(=O)[C@@H]3CCC(=O)N3Cc3ccc(Br)cc3)cc2)cc1` the value was 9.2 µM.
As for `Nc1ccccc1NC(=O)c1ccc(COc2ccc(CNC(=O)[C@@H]3CCCN3C(=O)OCc3ccccc3)cc2)cc1`, the IC50 was greater than 25 µM.
Still for that read-out and setting: for `CC(C)(C)OC(=O)NCc1ccc(OCc2ccc(C(=O)Nc3ccccc3N)cc2)cc1` the value was 14.6 µM.
Same read-out and setting: the same measure for `O=C(O)c1ccc(COc2ccc(CNC(=O)[C@@H]3CCC(=O)N3Cc3ccc(Br)cc3)cc2)cc1`: greater than 25 µM.
Same read-out and setting: for `O=C(Nc1ccccc1)c1ccc(COc2ccc(CNC(=O)[C@@H]3CCC(=O)N3Cc3ccccc3)cc2)cc1` the value was greater than 25 µM; for `O=C(NCc1ccccc1)c1ccc(COc2ccc(CNC(=O)[C@@H]3CCC(=O)N3Cc3ccccc3)cc2)cc1`, greater than 25 µM.

The next assay deals with SF-268. Nature of the assay: Antiproliferative activity against human SF-268 cells assessed as inhibition of cell growth incubated for 72 hrs by MTT assay. Type of assay: functional, cell-based. The note with it: SF-268, 72 h.
Consider `O=C(NCc1ccc(OCc2ccc(B(O)O)cc2)cc1)[C@@H]1CCC(=O)N1Cc1ccccc1`, for which the IC50 is greater than 25 µM.
Still for that read-out and setting: the same measure for `Nc1ccccc1NC(=O)c1ccc(COc2ccc(CNC(=O)[C@@H]3CCC(=O)N3Cc3ccc(F)cc3)cc2)cc1`: 6.5 µM; for `O=C(O)c1ccc(COc2ccc(CNC(=O)[C@@H]3CCC(=O)N3Cc3ccccc3)cc2)cc1`: greater than 25 µM; for `Nc1ccccc1NC(=O)c1ccc(COc2ccc(CNC(=O)[C@@H]3CCC(=O)N3Cc3ccc(Br)cc3)cc2)cc1`: 6.6 µM.
Same read-out and setting: the same measure for `Nc1ccccc1NC(=O)c1ccc(COc2ccc(CNC(=O)[C@@H]3CCCN3C(=O)OCc3ccccc3)cc2)cc1`: 12.7 µM; for `CC(C)(C)OC(=O)NCc1ccc(OCc2ccc(C(=O)Nc3ccccc3N)cc2)cc1`: 8.6 µM; for `O=C(O)c1ccc(COc2ccc(CNC(=O)[C@@H]3CCC(=O)N3Cc3ccc(Br)cc3)cc2)cc1`: greater than 25 µM.
As for `O=C(Nc1ccccc1)c1ccc(COc2ccc(CNC(=O)[C@@H]3CCC(=O)N3Cc3ccccc3)cc2)cc1`, the IC50 was greater than 25 µM.
Same read-out and setting: the same measure for `O=C(NCc1ccccc1)c1ccc(COc2ccc(CNC(=O)[C@@H]3CCC(=O)N3Cc3ccccc3)cc2)cc1`: greater than 25 µM.

The subject of another assay is Caco-2. Nature of the assay: Antiproliferative activity against human Caco-2 cells assessed as inhibition of cell growth incubated for 72 hrs by MTT assay. In kind it is functional, cell-based. Conditions: Caco-2, 72 h.
Take `Nc1ccccc1NC(=O)c1ccc(COc2ccc(CNC(=O)[C@@H]3CCC(=O)N3Cc3ccc(F)cc3)cc2)cc1`: the IC50 was determined as 1.9 µM.
